Values after ≈ are worked out from the molar mass of the structure shown.
Legend:
Format in all cases: cell-based
STR[…] 508 = assay: In vitro antibacterial activity, MIC, BHI agar dilution; details: S. agalactiae CMX 508, unit assumed
Summary of the method: (§1)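 Agar dilution in BHI: plates inoculated with 1:100 dilutions of organisms (1:10 for Micrococcus and Streptococcus), incubated 20-24 h at 35-37° C, then inspected for the lowest inhibitory concentration against a drug-free growth control.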

M[…] ATCC 4698 = assay: as above; details: M. luteus ATCC 4698, unit assumed
Summary of the method: as §1

EN[…] ATCC 8043 = assay: as above; details: E. faecium ATCC 8043, unit assumed
Summary of the method: as §1

M[…] ATCC 9341 = assay: as above; details: M. luteus ATCC 9341, unit assumed
Summary of the method: as §1

[1] = system: STREPTOCOCCUS BOVIS A-5169; assay: as above; details: S. bovis A-5169, unit assumed
[2] = system: STREPTOCOCCUS PYOGENES EES61; assay: as above; details: S. pyogenes EES61, unit assumed
ESCHERICHIA COLI SS = assay: as above; details: E. coli SS, unit assumed
[3] = system: STAPHYLOCOCCUS AUREUS ATCC 6538P; assay: as above; details: S. aureus ATCC 6538P, 35-37° C., 20 to 24 hours, unit assumed
[4] = system: STREPTOCOCCUS PYOGENES PIU 2548; assay: as above; details: S. pyogenes PIU 2548, unit assumed
[5] = system: PROVIDENCIA STUARTII CMX 640; details: P. stuartii CMX 640; BHI agar; unit assumed
CANDIDA ALBICANS CCH 442 = assay: In vitro antibacterial activity, MIC, BHI agar dilution; details: C. albicans CCH 442, unit assumed
[6] = system: STAPHYLOCOCCUS EPIDERMIDIS 3519; details: S. epidermidis 3519; BHI agar; unit assumed
[7] = system: STAPHYLOCOCCUS AUREUS A5177; assay: In vitro antibacterial activity, MIC, BHI agar dilution; details: S. aureus A5177, unit assumed
[8] = system: PSEUDOMONAS AERUGINOSA 5007; assay: as above; details: P. aeruginosa 5007, unit assumed
[9] = system: PSEUDOMONAS AERUGINOSA DPHD-5263; assay: as above; details: P. aeruginosa DPHD-5263, unit assumed
[10] = system: STAPHYLOCOCCUS AUREUS 1775; assay: as above; details: S. aureus 1775, unit assumed
PSEUDOMONAS CEPACIA 296I = assay: as above; details: P. cepacia 296I, unit assumed
ESCHERICHIA COLI KNK 437 = details: E. coli KNK 437; BHI agar; unit assumed
[11] = system: STAPHYLOCOCCUS AUREUS A-5278; assay: In vitro antibacterial activity, MIC, BHI agar dilution; details: S. aureus A-5278, unit assumed
ESCHERICHIA COLI H560 = assay: as above; details: E. coli H560, unit assumed
[12] = system: PSEUDOMONAS AERUGINOSA BMH10; assay: as above; details: P. aeruginosa BMH10, unit assumed
ESCHERICHIA COLI DC-2 = assay: as above; details: E. coli DC-2, unit assumed
[13] = system: ENTEROBACTER AEROGENES ATCC 13048; assay: as above; details: E. aerogenes ATCC 13048, unit assumed
[14] = system: STREPTOCOCCUS PYOGENES 930; assay: as above; details: S. pyogenes 930, unit assumed
ESCHERICHIA COLI JUHL = details: E. coli JUHL; BHI agar; unit assumed
[15] = system: STAPHYLOCOCCUS AUREUS NCTC10649M; assay: In vitro antibacterial activity, MIC, BHI agar dilution; details: S. aureus NCTC10649M, unit assumed
[16] = system: PSEUDOMONAS AERUGINOSA K799/61; assay: as above; details: P. aeruginosa K799/61, unit assumed
[17] = system: PSEUDOMONAS AERUGINOSA K799/WT; assay: as above; details: P. aeruginosa K799/WT, unit assumed
[18] = system: KLEBSIELLA PNEUMONIAE ATCC 8045; assay: as above; details: K. pneumoniae ATCC 8045, unit assumed
[19] = system: STAPHYLOCOCCUS AUREUS CMX 553; assay: as above; details: S. aureus CMX 553, unit assumed
[20] = system: PSEUDOMONAS AERUGINOSA DPHD-2862; assay: as above; details: P. aeruginosa DPHD-2862, unit assumed
[21] = system: STAPHYLOCOCCUS AUREUS CMX 642A; assay: as above; details: S. aureus CMX 642A, unit assumed
[22] = system: MYCOBACTERIUM SMEGMATIS ATCC 114; assay: as above; details: M. smegmatis ATCC 114, unit assumed

CCC1OC(=O)C(C)C(=O)C(C)C(OC2OC(C)CC(N(C)C)C2O)C(C)(OC)CC(C)C2=NC(CN3CCCCC3)CN3C(=O)OC1(C)C3C2C (stereo not drawn) [Example 96]
MIC (STR[…] 508): 0.05 µg/mL (≈ 0.068 µM) | MIC (M[…] ATCC 4698): 0.39 µg/mL (≈ 0.531 µM) | MIC (EN[…] ATCC 8043): 0.1 µg/mL (≈ 0.136 µM) | MIC (M[…] ATCC 9341): 0.02 µg/mL (≈ 0.0272 µM) | MIC [1]: 0.01 µg/mL (≈ 0.0136 µM) | MIC [2]: 0.02 µg/mL (≈ 0.0272 µM) | MIC (ESCHERICHIA COLI SS): 0.39 µg/mL (≈ 0.531 µM) | MIC [3]: 0.2 µg/mL (≈ 0.272 µM) | MIC [4]: 0.39 µg/mL (≈ 0.531 µM) | MIC [5]: > 100 µg/mL | MIC (CANDIDA ALBICANS CCH 442): > 100 µg/mL | MIC [6]: 0.39 µg/mL (≈ 0.531 µM) | MIC [7]: 0.2 µg/mL (≈ 0.272 µM) | MIC [8]: > 100 µg/mL | MIC [9]: > 100 µg/mL | MIC [10]: > 100 µg/mL | MIC (PSEUDOMONAS CEPACIA 296I): > 100 µg/mL | MIC (ESCHERICHIA COLI KNK 437): 50 µg/mL (≈ 68 µM) | MIC [11]: > 100 µg/mL | MIC (ESCHERICHIA COLI H560): 12.5 µg/mL (≈ 17 µM) | MIC [12]: 100 µg/mL (≈ 136 µM) | MIC (ESCHERICHIA COLI DC-2): 25 µg/mL (≈ 34 µM) | MIC [13]: 100 µg/mL (≈ 136 µM) | MIC [14]: > 100 µg/mL | MIC (ESCHERICHIA COLI JUHL): 25 µg/mL (≈ 34 µM) | MIC [15]: 0.39 µg/mL (≈ 0.531 µM) | MIC [16]: 0.78 µg/mL (≈ 1.06 µM) | MIC [17]: > 100 µg/mL | MIC [18]: 100 µg/mL (≈ 136 µM) | MIC [19]: 0.39 µg/mL (≈ 0.531 µM) | MIC [20]: > 100 µg/mL | MIC [21]: 0.39 µg/mL (≈ 0.531 µM) | MIC [22]: 3.1 µg/mL (≈ 4.22 µM)

CCC1OC(=O)C(C)C(=O)C(C)C(OC2OC(C)CC(N(C)C)C2O)C(C)(OC)CC(C)C2=NC(CN(C)C)CN3C(=O)OC1(C)C3C2C (stereo not drawn) [Example 97]
MIC (STR[…] 508): 0.02 µg/mL (≈ 0.0288 µM) | MIC (M[…] ATCC 4698): 0.78 µg/mL (≈ 1.12 µM) | MIC (EN[…] ATCC 8043): 0.1 µg/mL (≈ 0.144 µM) | MIC (M[…] ATCC 9341): 0.05 µg/mL (≈ 0.072 µM) | MIC [1]: 0.01 µg/mL (≈ 0.0144 µM) | MIC [2]: 0.02 µg/mL (≈ 0.0288 µM) | MIC (ESCHERICHIA COLI SS): 0.39 µg/mL (≈ 0.561 µM) | MIC [3]: 0.2 µg/mL (≈ 0.288 µM) | MIC [4]: 0.2 µg/mL (≈ 0.288 µM) | MIC [5]: > 100 µg/mL | MIC (CANDIDA ALBICANS CCH 442): > 100 µg/mL | MIC [6]: 0.39 µg/mL (≈ 0.561 µM) | MIC [7]: 0.2 µg/mL (≈ 0.288 µM) | MIC [8]: > 100 µg/mL | MIC [9]: > 100 µg/mL | MIC [10]: > 100 µg/mL | MIC (PSEUDOMONAS CEPACIA 296I): > 100 µg/mL | MIC (ESCHERICHIA COLI KNK 437): 50 µg/mL (≈ 72 µM) | MIC [11]: > 100 µg/mL | MIC (ESCHERICHIA COLI H560): 25 µg/mL (≈ 36 µM) | MIC [12]: > 100 µg/mL | MIC (ESCHERICHIA COLI DC-2): 50 µg/mL (≈ 72 µM) | MIC [13]: 100 µg/mL (≈ 144 µM) | MIC [14]: > 100 µg/mL | MIC (ESCHERICHIA COLI JUHL): 50 µg/mL (≈ 72 µM) | MIC [15]: 0.78 µg/mL (≈ 1.12 µM) | MIC [16]: 0.78 µg/mL (≈ 1.12 µM) | MIC [17]: > 100 µg/mL | MIC [18]: 100 µg/mL (≈ 144 µM) | MIC [19]: 0.39 µg/mL (≈ 0.561 µM) | MIC [20]: > 100 µg/mL | MIC [21]: 0.2 µg/mL (≈ 0.288 µM) | MIC [22]: 12.5 µg/mL (≈ 18 µM)
